Reference: patent publication US20240238255A1, “KL1333 FOR USE IN MEDICINE” (ABLIVA AB, priority 2021, published 2024)

Legend:
[1] = test system: patients with primary mitochondrial disease; assay: NeuroQoL Short Form Fatigue in primary mitochondrial disease patients; assay type: in vivo, human
[2] = test system: cells derived from patients with MELAS; assay: Cellular models, including cells derived from patients with MELAS; assay type: cell-based, human; conditions: including MELAS patient-derived cells
[3] = Plasma exposure of Total KL1333, Part C patients with primary mitochondrial disease; conditions: human, in vivo
Excerpt: (§1) Part C will comprise a randomised, multiple-dose, single-group, placebo-controlled study. A total of 8 patients diagnosed with any mitochondrial disease will be enrolled in this part of the study. Part C may start after the dose selection conference has been completed for the final cohort of Part B, at a daily dose no higher than the highest well-tolerated dose in Part B.
It is planned for patients to receive study drug QD on Days 1 to 10. Dose levels, dose frequency, and dietary state will be confirmed following review of safety, tolerability, and PK data from Part B, and unless deemed very unfavourable for the conduct of the study, the patients will not be required to be fasting prior to dosing. Study drug will be administered by clinical site staff when the patients are resident at the clinical site or return for outpatient visits. On all other days, patients will record drug administration and any concomitant medications in a diary that will be provided to each patient. Diaries will be reviewed and checked for compliance during the outpatient visits and as part of the check-in procedures on Day 10. Clinical symptoms that occur while patients are not resident at the site will be collected by the site using standard adverse event (AE) reporting procedures. […]

[4] = test system: lactate/pyruvate ratio, serum niacinamide, serum xanthine; assay: Blood and serum biomarkers in PMD patients; assay type: in vivo, human
Procedure: FIG. 7. Lactate/Pyruvate ratio in PMD patients treated daily with 50 mg KL1333 (n=6) or placebo (n=2) for 10 days.
FIG. 8. Serum niacinamide is an early biomarker of response to KL1333 treatment. PMD patients were treated with 50 mg KL1333 QD (n=6) or placebo (n=2). The data are expressed as the ratio of the niacinamide concentrations in Day 2 and Day 1 serum samples.
FIG. 9. Serum xanthinse is an early biomarker of response to KL1333 treatment. PMD patients were treated with 50 mg KL1333 QD (n=6) or placebo (n=2). The data are expressed as the ratio of the xanthine concentrations in Day 2 and Day 1 serum samples.
(§2) For Parts B through D, blood biomarker assessments will include: • nicotinamide adenine dinucleotide (oxidized form; NAD^+)/nicotinamide adenine dinucleotide (reduced form; NADH) concentrations and ratio • fibroblast growth factor-21 (FGF21) • growth/differentiation factor-15 (GDF15) • lactate/pyruvate concentrations and ratio.

[5] = test system: patients with primary mitochondrial disease; assay: Clinical outcome assessments overall in primary mitochondrial disease patients; assay type: in vivo, human
[6] = Drug substance properties; assay type: physicochemical; conditions: crystalline powder
Excerpt: KL-1333 is a drug substance with a molecular mass of 240.26 g/mol. […] It is manufactured via multi-step chemical synthesis.

NQO1 = NQO1 (Homo sapiens, UniProt P15559); assay: NQO1 substrate activity; assay type: biochemical; conditions: compared with other NQO1 active compounds (ie, idebenone)
Excerpt: KL1333 is a novel compound under development for primary mitochondrial diseases. KL1333 acts as a substrate for NAD(P)H:dehydrogenase [quinone]1 (NQO1), which produces nicotinamide adenine dinucleotide (oxidized form; NAD^+) by transferring 2 electrons to KL1333 using nicotinamide adenine dinucleotide (reduced form; NADH) as a cofactor. KL1333 transfers these electrons to the mitochondrial electron transport system, directly promoting ATP production. Additionally, the elevated NAD^+ levels lead to activation of mitochondrial biogenesis pathways, such as sirtuin 1 (SIRT1), 5′-adenosine monophosphate-activated protein kinase (AMPK), and peroxisome proliferator-activated receptor gamma coactivator 1-alpha (PGC-1α), thereby improving mitochondrial function.

[7] = test system: blood lactate/pyruvate ratio; assay: Blood lactate/pyruvate ratio in healthy volunteers; assay type: in vivo, human
Procedure: FIG. 5. Healthy volunteers were treated with KL1333 (n=36) or placebo (n=14) once daily for 9 days prior to blood sampling for measurement of lactate and pyruvate concentrations and calculation of a lactate pyruvate ratio. Data for different doses of KL1333 were combined, including 50 mg QD, 50 mg TID, 75 mg QD, 75 mg BID, 150 mg QD and 250 mg QD.
FIG. 6. The blood lactate/pyruvate concentration ratio decreased with increasing concentration of KL1333 in plasma Day 10 after treatment with KL1333. Healthy volunteers were treated with KL1333 (n=36) or placebo (n=14) once daily for 9 days prior to blood sampling for measurement of lactate and pyruvate concentrations and calculation of a lactate pyruvate ratio. Data for different doses of KL1333 were combined from 7 cohorts consisting of two placebo and 6 KL1333 subjects, treated with 25 mg QD, 50 mg QD, 50 mg TID, 75 mg QD, 75 mg BID, 150 mg QD and 250 mg QD. Data were normalized against the cohort mean value for each cohort.
as §2

[8] = test system: patients with primary mitochondrial disease; assay: Daily Fatigue Impact Scale (D-FIS) in primary mitochondrial disease patients; assay type: in vivo, human
healthy subjects = assay: Safety and tolerability in healthy subjects (Parts A, B, D); assay type: in vivo, human
Procedure: Part A will comprise a randomised, single-dose, single-sequence, placebo-controlled study. Eight healthy subjects will be studied in a single cohort (Group A1). Potential subjects will be screened to assess their eligibility to enter the study within 28 days prior to the first dose administration. Subjects will participate in 2 treatment periods. For each treatment period, subjects will reside at the Phase I clinical site from Days −1 to 3 (48 hours postdose). Subjects will return to the clinical site for outpatient visits on Days 4 and 5. There will be at least a 10-day washout between doses (from Period 1, Day 1 to Period 2, Day 1).
Six subjects will be randomised to receive 25 mg KL1333 and 2 subjects will be randomised to receive placebo, and subjects will receive the same treatment in both treatment periods. On Treatment Period 1, Day 1, subjects will receive a single oral dose of study drug following an overnight fast of at least 8 hours. On Treatment Period 2, Day 1, subjects will receive a single oral dose of study drug after consuming a standard high-fat breakfast. Following review of safety, tolerability, and PK data, up to 2 additional dose cohorts of healthy subjects may be added if needed to determine the study treatment for
Part B will comprise a randomised, multiple-dose, sequential-group, placebo-controlled study. Sixteen healthy subjects will be studied in 2 cohorts (Groups B1 and B2), with each cohort consisting of 8 subjects. Part B may start after completion of Group A1, at a dose equal to or less than given in Part A.
On Day 1, 6 subjects will be randomised to receive KL1333 and 2 subjects will be randomised to receive placebo. The preliminary planned doses of KL1333 for Groups B1 and B2 are 25 and 50 mg, respectively, once daily (QD) on Days 1 to 10. Dose levels, dose frequency, and dietary state will be confirmed following review of safety, tolerability, and PK data from Part A and ongoing data from Part B. Additionally, a dose selection conference meeting will be held before each cohort in Part B where blinded data from the previous cohort will be reviewed before a decision is made about proceeding to the next cohort. Following review of safety, tolerability, and PK data, up to 3 additional dose cohorts of healthy subjects may be added to further explore the PK, safety, and tolerability of KL1333. If additional cohorts are required, each cohort will consist of 8 subjects, with 6 subjects receiving KL1333 and 2 subjects receiving placebo. The dose level will not exceed 600 mg, and the predicted exposure following multiple daily dose administration in any subject in Part B will not exceed an AUC0-24 of 51,800 ng.h/mL for derived total KL1333. There will be a minimum of 6 days between dose escalations for each cohort (between the last dose of one cohort and the first dose of the next cohort). Subjects will return for a Follow-up visit on Day 15, 5 days after their final dose.
Part D will comprise a randomised, multiple-dose, placebo-controlled study. Sixteen healthy subjects will be studied in 2 cohorts (Groups D1 and D2), with each cohort consisting of 8 subjects. Part D will start after completion of Part B, and the Part D groups may be run in parallel.
On Day 1, 6 subjects will be randomised to receive KL1333 and 2 subjects will be randomised to receive placebo. The doses of KL1333 for Groups D1 and D2 are 75 mg twice daily (BID) and 50 mg 3 times daily (TID), respectively, on Days 1 to 10 with a single dose administration on Day 10.
The safety and tolerability of KL1333 in healthy volunteers was explored at multiple ascending doses in part B and D of the study. Part D specifically explored if tolerability was improved by dividing the daily dose into two and three administrations respectively. Cohorts B3, D1 and D2 all received total daily doses of 150 mg for 10 days. Cohort B3 received 150 mg once daily (QD), cohort D1 received 75 mg twice daily (BID), and cohort D2 50 mg three times daily (TID). […]

[9] = test system: patients with primary mitochondrial disease; assay: Safety and tolerability in patients with primary mitochondrial disease (Part C); assay type: in vivo; conditions: multiple oral QD doses of 50 mg for 10 days
Excerpt: as §1
Two patients will be initially dosed, with 1 patient receiving KL1333 and 1 patient receiving placebo. If there are no safety or tolerability concerns in these patients following the Day 4 visit, the remaining 6 patients, with 5 patients receiving KL1333 and 1 patient receiving placebo, will be enrolled on a rolling basis. In the event there are safety concerns following completion of the 2 sentinel patients without meeting stopping criteria, the Sponsor may add intermediate cohorts if the safety evaluation in intermediate cohorts will be needed. The dosing schedule of intermediate cohorts will be the same as that of the planned cohort. The schedule of safety assessments of intermediate cohorts will be the same as that of the planned cohort as a general rule. Whether or not to add safety assessments in the intermediate cohorts will be determined by the Sponsor.
It is planned for patients to receive study drug QD on Days 1 to 10. […]

[10] = test system: patients with primary mitochondrial disease; assay: 30 Second Sit-to-Stand Test in primary mitochondrial disease patients; assay type: in vivo, human; conditions: 50 mg QD for 10 days, versus placebo; number of sit to stand repetitions
[11] = 50 mg QD, after one day of treatment (Day 2/Day 1)
[12] = 50 mg once daily, 10 days of dosing, PMD patients

NQO1, sequence (P15559 whole entry, species assumed): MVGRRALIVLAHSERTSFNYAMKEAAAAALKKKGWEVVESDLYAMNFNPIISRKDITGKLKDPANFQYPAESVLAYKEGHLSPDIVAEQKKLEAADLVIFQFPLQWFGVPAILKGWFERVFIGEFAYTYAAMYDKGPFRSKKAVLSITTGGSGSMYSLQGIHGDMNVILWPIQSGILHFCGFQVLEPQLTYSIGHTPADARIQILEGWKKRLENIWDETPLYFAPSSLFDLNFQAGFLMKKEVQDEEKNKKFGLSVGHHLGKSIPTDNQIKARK

CC(C)c1nc2c([nH]1)C(=O)C(=O)c1ccccc1-2 [KL1333]
NeuroQoL Short Form Fatigue, mean change ([1]; 50 mg QD for 10 days, baseline to day 10, n=6 versus placebo n=2): improvement
NeuroQol fatigue change from baseline, high exposure group versus placebo ([1]; 50 mg QD for 10 days, high exposure patients, Kruskal-Wallis test): statistically significant better than placebo
correlation of NeuroQol SF Fatigue raw score change with Total KL1333 Ctrough ([1]; change from baseline to day 10, Ctrough at day 10): statistically significant correlation
ATP [2]: increased ATP
NAD+ [2]: increased NAD^+
ROS [2]: decreased ROS
SIRT1, AMPK and PGC-1α activation [2]: activation of SIRT1, AMPK, and PGC-1α
lactic acid [2]: decreased lactic acid
mitochondrial oxidative phosphorylation function [2]: improved mitochondrial oxidative phosphorylation function
pharmacokinetics profile, healthy volunteers versus patients [3]: similar
serum niacinamide [4, 11]: increased
serum xanthine [4, 11]: increased
lactate/pyruvate ratio, Day 10 compared to Day 1 ([4]; 50 mg daily for 10 days (n=6), not seen in placebo): decreased
fatigue [5, 12]: marked improvement in fatigue
muscle strength [5, 12]: marked improvement in muscle strength
combatting fatigue and muscle weakness ([5]; clinical outcome assessments of primary mitochondrial disease patients): effective
hygroscopicity [6]: non-hygroscopic
solubility in water [6]: practically insoluble
potency as substrate to NQO1 (NQO1): more potent substrate to NQO1 than other NQO1 active compounds
blood lactate pyruvate ratio in relation to plasma concentration of KL1333 ([7]; Day 10, plasma concentration prior to blood sampling): lowest in individuals with a plasma concentration of KL1333 exceeding 100 ng/ml
blood lactate/pyruvate ratio ([7]; after 10 days of treatment, doses combined (n=36 versus placebo n=14)): trend of decreasing
Daily Fatigue Impact Scale, mean change ([8]; 50 mg QD for 10 days, versus placebo, reduction of fatigue impacts on daily activities): greater improvement
correlation of DFIS change with Total KL1333 Ctrough ([8]; change from day-1 to day 10, Ctrough at day 10): statistically significant correlation
frequency and severity of loose stool episodes (Bristol Stool chart) (healthy subjects; 150 mg daily for 10 days: 75 mg BID and 50 mg TID versus 150 mg QD): improved
tolerability (healthy subjects; QD doses of 150 mg, healthy subjects): tolerated
tolerability (healthy subjects; QD doses of 250 mg, healthy subjects, GI TEAEs): poorly tolerated
tolerability (healthy subjects; QD doses of 25 to 75 mg, healthy subjects): well tolerated
tolerability of BID or TID versus QD dosing (healthy subjects; daily doses of 150 mg, healthy subjects, GI-related adverse events): better tolerated
clinical chemistry, hematology, urinalysis data (healthy subjects; mean or individual subject data during the study): no apparent treatment- or dose-related trends
tolerability (healthy subjects; single oral doses of 25 mg with or without food, healthy subjects): well tolerated
vital signs, 12-lead ECGs, physical examinations (healthy subjects; whole study): no apparent treatment- or dose-related trends
serious adverse events (healthy subjects; whole study: 64 healthy volunteers and 8 patients, KL1333 or placebo): no serious adverse events
tolerability [9]: well tolerated
30s Sit-to-stand test, mean change [10]: greater improvement
